Experimental data reported in ChEMBL document CHEMBL2429822, “Imaging probes of tau pathology” (ACS Med Chem Lett, 2013).
Calls of active or inactive are those of the source. The rule behind the calls is not given here.

What was measured:
[1] = biological target: Amyloid-beta precursor protein (Homo sapiens) (UniProt P05067); assay: Binding affinity to human amyloid-beta plaques at 100 uM by fluorescence microscopy
[2] = biological target: Microtubule-associated protein tau (Homo sapiens) (UniProt P10636); assay: Binding affinity to human tau associated NFTs at 100 uM by fluorescence microscopy
[3] = biological target: Amyloid-beta precursor protein (Homo sapiens) (UniProt P05067); assay: Binding affinity to human amyloid-beta plaques at 10 uM by fluorescence microscopy
[4] = biological target: Microtubule-associated protein tau (Homo sapiens) (UniProt P10636); assay: Binding affinity to human tau associated NFTs at 1 uM by fluorescence microscopy
[5] = biological target: Microtubule-associated protein tau (Homo sapiens) (UniProt P10636); assay: Binding affinity to human tau associated NFTs at 10 uM by fluorescence microscopy
[6] = biological target: Amyloid-beta precursor protein (Homo sapiens) (UniProt P05067); assay: Binding affinity to human amyloid-beta plaques at 1 uM by fluorescence microscopy
[7] = system: Brain; assay: Ratio of clearance in C57B1/6 mouse brain at 2 MBq after 2 mins to clearance in C57B1/6 mouse brain at 2 MBq after 30 mins; type: ADME, tissue-based; conditions: in vivo
[8] = system: Brain; assay: Biodistribution in C57B1/6 mouse brain at 2 MBq, iv after 60 mins by gamma-counting analysis; type: ADME, organism-based; conditions: in vivo, 1 h
[9] = system: Brain; assay: Biodistribution in C57B1/6 mouse brain at 2 MBq, iv after 30 mins by gamma-counting analysis; type: ADME, organism-based; conditions: in vivo, 0.5 h
[10] = system: Brain; assay: Biodistribution in C57B1/6 mouse brain at 2 MBq, iv after 10 mins by gamma-counting analysis; type: ADME, organism-based; conditions: in vivo
[11] = system: Brain; assay: Biodistribution in C57B1/6 mouse brain at 2 MBq, iv after 2 mins by gamma-counting analysis; type: ADME, organism-based; conditions: in vivo
[12] = system: Brain; assay: Ratio of clearance in Wistar rat brain at 50 ug after 2 mins to clearance in Wistar rat brain at 50 ug after 30 mins; type: ADME, tissue-based; conditions: in vivo
[13] = system: Brain; assay: Biodistribution in Wistar rat brain at 50 ug, iv after 30 mins by […] analysis; type: ADME, organism-based; conditions: in vivo, 0.5 h
[14] = system: Brain; assay: Biodistribution in Wistar rat brain at 50 ug, iv after 60 mins by […] analysis; type: ADME, organism-based; conditions: in vivo, 1 h
[15] = system: Brain; assay: Biodistribution in Wistar rat brain at 50 ug, iv after 10 mins by […] analysis; type: ADME, organism-based; conditions: in vivo
[16] = system: Brain; assay: Biodistribution in Wistar rat brain at 50 ug, iv after 2 mins by […] analysis; type: ADME, organism-based; conditions: in vivo
[17] = tested as the 11C-labelled form

Microtubule-associated protein tau (Homo sapiens), sequence (P10636 whole entry): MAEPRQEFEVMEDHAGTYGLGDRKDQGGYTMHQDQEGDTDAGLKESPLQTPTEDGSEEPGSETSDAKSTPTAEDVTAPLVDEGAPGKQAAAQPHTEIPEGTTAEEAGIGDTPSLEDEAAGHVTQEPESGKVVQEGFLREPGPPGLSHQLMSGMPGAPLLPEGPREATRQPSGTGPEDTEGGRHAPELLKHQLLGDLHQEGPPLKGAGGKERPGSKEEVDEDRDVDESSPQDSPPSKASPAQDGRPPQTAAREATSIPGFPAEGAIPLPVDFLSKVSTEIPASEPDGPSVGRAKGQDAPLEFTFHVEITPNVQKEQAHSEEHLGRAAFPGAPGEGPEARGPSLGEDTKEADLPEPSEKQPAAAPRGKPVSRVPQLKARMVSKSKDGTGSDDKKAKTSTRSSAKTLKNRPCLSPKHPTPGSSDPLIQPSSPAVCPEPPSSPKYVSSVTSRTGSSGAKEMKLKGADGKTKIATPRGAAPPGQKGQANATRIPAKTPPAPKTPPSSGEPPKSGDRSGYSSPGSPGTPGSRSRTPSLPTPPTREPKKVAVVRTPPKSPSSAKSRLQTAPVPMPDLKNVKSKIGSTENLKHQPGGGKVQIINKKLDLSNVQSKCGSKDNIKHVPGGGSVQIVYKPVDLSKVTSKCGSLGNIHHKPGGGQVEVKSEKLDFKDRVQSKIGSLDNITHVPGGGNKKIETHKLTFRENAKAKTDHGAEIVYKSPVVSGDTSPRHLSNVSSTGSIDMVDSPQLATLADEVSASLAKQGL
Amyloid-beta precursor protein (Homo sapiens), sequence (P05067 whole entry): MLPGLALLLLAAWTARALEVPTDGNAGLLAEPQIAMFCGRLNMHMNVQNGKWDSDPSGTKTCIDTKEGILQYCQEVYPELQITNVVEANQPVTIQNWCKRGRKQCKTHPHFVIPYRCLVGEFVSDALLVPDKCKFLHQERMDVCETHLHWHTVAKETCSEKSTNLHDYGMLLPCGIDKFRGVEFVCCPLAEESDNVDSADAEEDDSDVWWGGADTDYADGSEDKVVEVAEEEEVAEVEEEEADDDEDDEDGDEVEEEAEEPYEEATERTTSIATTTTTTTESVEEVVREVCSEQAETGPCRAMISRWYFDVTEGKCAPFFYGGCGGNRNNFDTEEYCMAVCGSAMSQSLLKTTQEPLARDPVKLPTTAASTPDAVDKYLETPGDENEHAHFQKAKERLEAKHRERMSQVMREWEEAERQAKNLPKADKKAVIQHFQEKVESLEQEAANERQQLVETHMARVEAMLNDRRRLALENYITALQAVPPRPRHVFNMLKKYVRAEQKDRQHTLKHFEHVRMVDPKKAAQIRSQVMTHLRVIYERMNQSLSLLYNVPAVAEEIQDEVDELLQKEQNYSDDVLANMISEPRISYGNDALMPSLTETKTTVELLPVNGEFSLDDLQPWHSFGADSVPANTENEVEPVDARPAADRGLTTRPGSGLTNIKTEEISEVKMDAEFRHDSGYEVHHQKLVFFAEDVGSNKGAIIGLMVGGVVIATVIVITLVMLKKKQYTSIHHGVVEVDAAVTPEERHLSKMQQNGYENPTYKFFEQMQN

Activity [1]	Activity [2]	Activity [3]	Activity [4]	Activity [5]	Compound	also measured
inactive	inactive				CC(C)NC(=O)c1nn(-c2ccc(OCC(O)CF)cc2)c(=O)c2c(N)scc12 (configuration not stated)	
inactive	inactive				CC(C)NC(=O)c1nn(-c2ccc(OCCCF)cc2)c(=O)c2c(N)scc12	
Active	Active	Active	Active	Active	CC(C)NC(=O)c1nn(-c2ccc(OCCF)cc2)c(=O)c2c(N)scc12	Ratio [12]: 13.3; Drug uptake [13]: 0.021%; Drug uptake [14]: 0.011%; Drug uptake [15]: 0.081%; Drug uptake [16]: 0.28%; Activity [6]: inactive

Continued, compound first:

Compound	Activity [1]	Activity [2]	Activity [3]	Activity [4]	Activity [5]	also measured
CC(C)NC(=O)c1nn(-c2ccc([N+](=O)[O-])cc2)c(=O)c2c(N)scc12	Active	Active	inactive	inactive	Active	
CC(C)NC(=O)c1nn(-c2ccc(F)cc2)c(=O)c2c(N)scc12	Active	Active	inactive	inactive	inactive	Activity [6]: inactive
CC(C)NC(=O)c1nn(-c2ccc(OCCF)cc2)c(=O)c2c(NC(=O)OC(C)(C)C)scc12	inactive	inactive				
CC(C)(C)OC(=O)c1nn(-c2ccc(OCCF)cc2)c(=O)c2c(N)scc12	inactive	inactive				
CC(C)NC(=O)c1nn(-c2ccc(OCCC[18F])cc2)c(=O)c2c(N)scc12						Ratio [7]: 2.8; Drug uptake [8]: 1.51%; Drug uptake [9]: 3.46%; Drug uptake [10]: 5.77%; Drug uptake [11]: 9.84%
CC(C)NC(=O)c1nn(-c2ccc(OCC[18F])cc2)c(=O)c2c(N)scc12						Ratio [7]: 2.3; Drug uptake [8]: 2.35%; Drug uptake [9]: 2.83%; Drug uptake [10]: 3.26%; Drug uptake [11]: 6.5%
CC(=C(C#N)C#N)c1ccc2cc(N(C)CCF)ccc2c1	Active	Active	Active	Active	Active	Activity [6]: Active
CNc1ccc(-c2nc3ccc(O)cc3s2)cc1						Activity [6, 17]: Active; Activity [3, 17]: Active; Activity [1, 17]: Active; Activity [4, 17]: inactive; Activity [5, 17]: Active; Activity [2, 17]: Active
